The text below walks through data of patent US8980587B2, “Process for producing reveromycin A or a synthetic intermediate thereof, process for producing compounds containing a spiroketal ring and novel antineoplastics, fungicides and therapeutic agents for bone disorders” (RIKEN, priority 2010, dated 2015).

Test [1] has as its target T1, Isoleucyl tRNA synthetase (Homo sapiens, UniProt P41252).
T1 construct: 10 μg protein (HT1080 cell lysate); endogenous in cells; host or cells: HT1080 cell lysate
T1 sequence (P41252 1-1262): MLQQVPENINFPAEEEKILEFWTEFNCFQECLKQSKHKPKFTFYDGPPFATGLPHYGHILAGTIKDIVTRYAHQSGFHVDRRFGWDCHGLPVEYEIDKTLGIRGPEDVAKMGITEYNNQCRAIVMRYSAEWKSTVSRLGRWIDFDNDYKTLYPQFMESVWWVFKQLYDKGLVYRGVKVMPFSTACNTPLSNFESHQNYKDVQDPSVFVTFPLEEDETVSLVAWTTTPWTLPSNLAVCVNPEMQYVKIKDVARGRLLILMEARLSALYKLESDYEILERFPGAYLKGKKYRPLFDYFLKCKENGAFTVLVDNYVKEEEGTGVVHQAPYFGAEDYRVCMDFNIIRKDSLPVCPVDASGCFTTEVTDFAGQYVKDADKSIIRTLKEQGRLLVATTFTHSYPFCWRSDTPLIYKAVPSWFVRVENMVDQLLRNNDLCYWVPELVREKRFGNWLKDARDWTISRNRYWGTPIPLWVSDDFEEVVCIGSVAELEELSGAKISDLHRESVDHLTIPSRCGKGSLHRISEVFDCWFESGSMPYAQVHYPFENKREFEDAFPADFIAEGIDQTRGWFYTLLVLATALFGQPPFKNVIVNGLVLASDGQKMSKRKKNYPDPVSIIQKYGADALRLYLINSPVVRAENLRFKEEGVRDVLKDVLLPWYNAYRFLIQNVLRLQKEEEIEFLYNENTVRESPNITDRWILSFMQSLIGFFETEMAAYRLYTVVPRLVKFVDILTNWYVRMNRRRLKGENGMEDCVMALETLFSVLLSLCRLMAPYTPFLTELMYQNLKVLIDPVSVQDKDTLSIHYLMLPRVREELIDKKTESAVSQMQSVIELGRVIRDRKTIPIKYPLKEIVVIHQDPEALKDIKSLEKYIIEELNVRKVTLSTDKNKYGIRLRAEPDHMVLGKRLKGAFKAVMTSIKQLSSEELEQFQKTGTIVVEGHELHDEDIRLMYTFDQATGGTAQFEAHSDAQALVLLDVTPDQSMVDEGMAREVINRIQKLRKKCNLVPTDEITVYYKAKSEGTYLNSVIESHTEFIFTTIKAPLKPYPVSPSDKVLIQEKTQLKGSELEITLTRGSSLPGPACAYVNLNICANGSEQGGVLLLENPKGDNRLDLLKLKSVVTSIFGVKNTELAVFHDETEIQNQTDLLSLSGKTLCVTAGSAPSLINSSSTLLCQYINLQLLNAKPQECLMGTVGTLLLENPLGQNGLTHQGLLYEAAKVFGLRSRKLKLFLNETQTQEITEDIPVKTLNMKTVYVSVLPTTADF
The test is described as follows: Inhibitory activity against isoleucyl tRNA synthetase. It counts as biochemical. The following applies: for IC50: HT1080 cell lysate, [3H]isoleucine, 25° C., 20 minutes, read-out: IRS IC50 (converted). As for the experimental part:
To a solution for enzymatic reaction [20 mM imidazole, pH 7.5, 75 mM MgCl2, 0.5 mM DTT, 1 U/ml tRNA (E. coli origin, manufactured by Sigma), 3 mM ATP, 1 μM isoleucine, 10 μCi/ml [^3H]isoleucine (manufactured by GE Healthcare), 10 μg protein (HT1080 cell lysate)], each of the agents in Table 5 was added at 1% (v/v) so as to attain a total amount of 100 μl and a reaction was carried out at 25° C. for 20 minutes. One mg/ml BSA solution (400 μl) and 10% TCA solution (500 μl) were then added thereto to terminate the reaction and left to stand at 4° C. overnight. A precipitate obtained by a centrifugal operation was transferred onto GF-C filter (manufactured by Whatman), washed three times with 5% TCA solution, followed by drying the filter. Two milliliters of aquasol-2 (manufactured by PerkinElmer) and the filter were placed in a vial and vigorously stirred, and then the amount of [^3H]isoleucine was measured by a liquid scintillation counter (manufactured by Beckman) to determine a rate of enzyme activity.

In another test the test system is osteoclasts. The following applies: background art, Patent Document 1; cited from earlier work.
Test [2] relates to bone metastasis of tumors. The following applies: background art, Patent Document 1; cited from earlier work.

The structures appear in SMILES notation.

As usually defined, the IC50 is the concentration needed to halve the response being measured. `CCCC[C@@]1(OC(=O)CCC(=O)O)CC[C@]2(CC[C@H](C)[C@@H](C/C=C(C)/C=C/[C@H](O)[C@@H](C)/C=C/C(=O)O)O2)O[C@H]1/C=C/C(C)=C/C(=O)O` [RM-A, Reveromycin A]: the IC50 in test [1] is 9.38 nM. Also, the “apoptosis of osteoclasts (in words)” value with osteoclasts is on record as “induce apoptosis selectively for osteoclasts at low concentrations”. For the same molecule, the “bone metastasis of tumors (in words)” value in test [2] is “suppress bone metastasis of tumors”.
With `CCCCCC[C@@]1(OC(=O)CCC(=O)O)CC[C@]2(CC[C@H](C)[C@@H](C/C=C(C)/C=C/[C@H](O)[C@@H](C)/C=C/C(=O)O)O2)O[C@H]1/C=C/C(C)=C/C(=O)O` [RM-E], in test [1], the IC50 was 4.06 nM.
Consider `CCCC[C@H]1CC[C@]2(CC[C@H](C)[C@@H](C/C=C(C)/C=C/[C@H](O)[C@@H](C)/C=C/C(=O)OCC)O2)O[C@H]1/C=C/C(C)=C/C(=O)O` [RM-T ethyl-ester], for which, in test [1], the IC50 is 349 nM.
On to `CCCCC1CCC2(CCC(C)C(C/C=C(C)/C=C/C(O)C(C)/C=C/C(=O)O)O2)OC1/C=C/C(C)=C/C(=O)O` (stereo not shown) [RM-T], for which the IC50 in test [1] was 0.367 nM. Moreover, in test [1] (as compared with RM-A), the “enzyme inhibiting activity against the target molecule IRS (in words)” value was “higher”.
